Publication PMC4177760, “Cytotoxicity of four Aframomum species (A. arundinaceum, A. alboviolaceum, A. kayserianum and A. polyanthum) towards multi-factorial drug resistant cancer cell lines” (BMC Complementary and Alternative Medicine, 2014)
Where two headings read alike, the source gives them in different places.

Columns and labels:
[1] = system: drug-sensitive CCRF-CEM leukemia cells; assay: Resazurin reduction assay, CCRF-CEM; assay type: cell-based, human
Procedure: (§1) The cell lines used the present work, their origins and their treatments were previously reported. They include drug-sensitive CCRF-CEM and multidrug-resistant P-glycoprotein over-expressing CEM/ADR5000 leukemia cells, the MDA-MB-231-pcDNA3 breast cancer cells and its resistant subline MDA-MB-231-BCRP clone 23), the HCT116 (p53^+/+) colon cancer cells and its knockout clones HCT116 (p53^-/-), the U87MG glioblastoma cells and its resistant subline U87MG.ΔEGFR, HepG2 hepatocarcinoma cells and AML12 normal hepatocytes. The CCRF-CEM and CEM/ADR5000 leukemia cells were maintained in RPMI 1640 medium (Invitrogen) supplemented with 10% fetal calf serum in a humidified 5% CO2 atmosphere at 37°C. Sensitive and resistant cells were kindly provided by Dr. Axel Sauerbrey (Department of Pediatrics, University of Jena, Jena, Germany). The generation of the resistant subline was previously described. Breast cancer cells, transduced with control vector (MDA-MB-231-pcDNA3) or with cDNA for the breast cancer resistance protein BCRP (MDA-MB-231-BCRP clone 23), were maintained under standard conditions as described above for CCRF-CEM cells. Human wild-type HCT116 (p53^+/+) colon cancer cells as well as knockout clones HCT116 (p53^-/-) derived by homologous recombination were a generous gift from Dr. B. Vogelstein and H. Hermeking (Howard Hughes Medical Institute, Baltimore, MD). Human glioblastoma multiforme U87MG cells (non-transduced) and U87MG cell line transduced with an expression vector harboring an epidermal growth factor receptor (EGFR) gene with a genomic deletion of exons 2 through 7 (U87MG.ΔEGFR) were kindly provided by Dr. W. K. Cavenee (Ludwig Institute for Cancer Research, San Diego, CA). MDA-MB-231-BCRP, U87MG.ΔEGFR and HCT116 (p53^-/-) were maintained in DMEM medium containing 10% FBS (Invitrogen) and 1% penicillin (100 U/mL)-streptomycin (100 μg/mL) (Invitrogen) and were continuously treated with 800 ng/mL and 400 μg/mL geneticin, respectively. Human HepG2 hepatocellular carcinoma cells and normal AML12 heptocytes were obtained from the American Type Culture Collection (ATCC, USA). The above medium without geneticin was used to maintain MDA-MB-231, U87MG, HCT116 (p53^+/+), HepG2 and AML12 cell lines. The cells were passaged twice weekly. All experiments were performed with cells in the logarithmic growth phase.
(§2) The cytotoxicity of the studied samples was performed by resazurin reduction assay as we previously described. Briefly, adherent cells at 1x10^4 cells were allowed to attach overnight and then treated with different studied samples. […] For suspension cells, aliquots of 2 × 10^4 cells per well were seeded in 96-well-plates in a final volume of 200 μL. […] The tested concentrations ranges were 0.16 μg/mL to 40 μg/mL for crude extracts and isolated compounds and 0.08 μg/mL to 20 μg/mL for doxorubicin. After 72 h incubation and a resazurin (Sigma-Aldrich, Schnelldorf, Germany) staining, fluorescence was measured on an Infinite M2000 Pro™ plate reader (Tecan, Crailsheim, Germany) using an excitation wavelength of 544 nm and an emission wavelength of 590 nm. Each assay was done at least two times, with six replicates each. IC50 values represent the sample’s concentrations required to inhibit 50% of cell proliferation and were calculated from a calibration curve by linear regression using Microsoft Excel.

AML12 normal hepatocytes = assay: Resazurin reduction assay, AML12; assay type: cell-based; settings: 72 h
Procedure: as §1, §2

[2] = system: HCT116 (p53-/-) colon cancer cells; assay: Resazurin reduction assay, HCT116 p53-/-; assay type: cell-based, human; settings: for IC50: HCT116 p53-/-, 72 h; for degree of resistance: IC50 HCT116 p53-/- divided by IC50 HCT116 p53+/+
Procedure: as §1, §2

[3] = system: multidrug-resistant P-glycoprotein over-expressing CEM/ADR5000 leukemia cells; assay: Resazurin reduction assay, CEM/ADR5000; assay type: cell-based, human; settings: for IC50: CEM/ADR5000, 72 h; for degree of resistance: IC50 CEM/ADR5000 divided by IC50 CCRF-CEM
Procedure: as §1, §2

[4] = system: MDA-MB-231-BCRP clone 23 breast cancer cells; assay: Resazurin reduction assay, MDA-MB-231-BCRP; assay type: cell-based; settings: for degree of resistance: IC50 MDA-MB-231-BCRP divided by IC50 MDA-MB-231; for IC50: 72 h
Procedure: as §1, §2

[5] = system: HepG2 hepatocarcinoma cells; assay: Resazurin reduction assay, HepG2; assay type: cell-based, human; settings: HepG2, 72 h
Procedure: as §1, §2

[6] = system: HCT116 (p53+/+) colon cancer cells; assay: Resazurin reduction assay, HCT116 p53+/+; assay type: cell-based, human
Procedure: as §1, §2

[7] = system: U87MG.ΔEGFR glioblastoma cells; assay: Resazurin reduction assay, U87MG.ΔEGFR; assay type: cell-based, human; settings: for IC50: U87MG.ΔEGFR, 72 h; for degree of resistance: IC50 U87MG.ΔEGFR divided by IC50 U87MG
Procedure: as §1, §2

U87MG glioblastoma cells = assay: Resazurin reduction assay, U87MG; assay type: cell-based, human; settings: 72 h
Procedure: as §1, §2

[8] = system: MDA-MB-231-pcDNA3 breast cancer cells; assay: Resazurin reduction assay, MDA-MB-231; assay type: cell-based; settings: MDA-MB-231, 72 h
Procedure: as §1, §2

[9] = system: nine cancer cell lines, sensitive and MDR phenotypes; assay: Resazurin reduction assay, all tested cancer cell lines; assay type: cell-based; settings: read-out: IC50 values on all tested cancer cell lines
Procedure: The cell lines used the present work, their origins and their treatments were previously reported. They include drug-sensitive CCRF-CEM and multidrug-resistant P-glycoprotein over-expressing CEM/ADR5000 leukemia cells, the MDA-MB-231-pcDNA3 breast cancer cells and its resistant subline MDA-MB-231-BCRP clone 23), the HCT116 (p53^+/+) colon cancer cells and its knockout clones HCT116 (p53^-/-), the U87MG glioblastoma cells and its resistant subline U87MG.ΔEGFR, HepG2 hepatocarcinoma cells and AML12 normal hepatocytes. The CCRF-CEM and CEM/ADR5000 leukemia cells were maintained in RPMI 1640 medium (Invitrogen) supplemented with 10% fetal calf serum in a humidified 5% CO2 atmosphere at 37°C. Sensitive and resistant cells were kindly provided by Dr. Axel Sauerbrey (Department of Pediatrics, University of Jena, Jena, Germany). The generation of the resistant subline was previously described. […]
The cytotoxicity of the studied samples was performed by resazurin reduction assay as we previously described. […] After 72 h incubation and a resazurin (Sigma-Aldrich, Schnelldorf, Germany) staining, fluorescence was measured on an Infinite M2000 Pro™ plate reader (Tecan, Crailsheim, Germany) using an excitation wavelength of 544 nm and an emission wavelength of 590 nm. […]

[10] = system: human promyeloleukemia cell line HL-60; design: method as in PMID 14505793, PMID 12832847, PMID 16310358; settings: HL-60, via a transient induction of caspase-3/CPP32 activity; cited from earlier work
[11] = single concentration 40 μg/mL, 72 h, preliminary test
[12] = Homo sapiens, CCRF-CEM, 72 h; read-out: IC50
[13] = Homo sapiens, HCT-116, read-out: IC50
[14] = Homo sapiens, HCT-116, 72 h, read-out: IC50
[15] = Homo sapiens, U-87 MG, read-out: IC50
[16] = MDA-MB-231-BCRP, read-out: IC50

Compound	Growth percentage (growth proliferation) of CCRF-CEM cells [1, 11]	IC50 [1, 12] [µg/mL]	IC50 (AML12 normal hepatocytes; Mus musculus, read-out: IC50) [µg/mL]	IC50 [2, 13] [µg/mL]	IC50 ([3]; Homo sapiens, read-out: IC50) [µg/mL]	degree of resistance [3]	degree of resistance [4]	IC50 ([5]; Homo sapiens, read-out: IC50) [µg/mL]	IC50 [6, 14] [µg/mL]	IC50 ([7]; Homo sapiens, read-out: IC50) [µg/mL]	IC50 (U87MG glioblastoma cells; [15]) [µg/mL]	IC50 ([8]; Homo sapiens, read-out: IC50) [µg/mL]	other results
CC1=CC(O)C(C(C)C)CC1O (stereo not drawn) [Compound 6, 1-p-menthene-3,6-diol]	more than 50%												
COc1ccc(-c2oc3cc(OC)cc(O)c3c(=O)c2OC)cc1 [Compound 9, kaempferol-3,7,4’-trimethylether]	39.58%	18.4 ± 2.04	> 40	36.7 ± 2.31	18.2 ± 1.18	0.99	< 0.83	> 40	> 40	> 40	> 40	> 40	IC50 ([4]; MDA-MB-231/BCRP): 33.1 ± 2.64 µg/mL
CC1(C)CCC[C@@]2(C)[C@H]1CC[C@@]1(CO1)[C@@H]2C/C=C(/C=O)CC=O [Compound 1, aframodial]	more than 50%												
C=C1CCC2C(C)(C)CCCC2(C)C1CC=C(C=O)CC=O (stereo not drawn) [Compound 2, 8(17),12-labdadien-15,16-dial]	more than 50%												
O=C1C[C@@H](c2ccc(O)cc2)Oc2cc(O)cc(O)c21 [Compound 8, naringenin]	38.49%	12.2 ± 1.87	> 40	13.9 ± 0.94	7.86 ± 0.74	0.64	1.91	23.5 ± 1.95	13.7 ± 1.11	18 ± 1.34	29.8 ± 1.88	9.51 ± 1.03	IC50 [9]: < 40 µg/mL; apoptosis induction [10]: induced apoptosis; degree of resistance [2]: 1.02; IC50 [4, 16]: 18.1 ± 2.01 µg/mL; degree of resistance [7]: 0.60
CC1(C)CCCC2(C)C1CCC1(CO1)C2CC=C1CCOC1=O (stereo not drawn) [Compound 3, galanolactone]	more than 50%												
COc1cccc2c1C(=O)c1c(O)c3c(c(O)c1C2=O)C[C@@](O)(C(=O)CO)C[C@@H]3O[C@H]1C[C@H](N)[C@H](O)[C@H](C)O1 [Doxorubucin, Doxorubicin, reference compound]		0.11 ± 0.01	> 40	4.06 ± 0.04	> 20	1772	7.11	1.41 ± 0.12	1.43 ± 0.02	6.11 ± 0.04	1.06 ± 0.03	1.1 ± 0.01	IC50 ([9]; all nine tested cancer cell lines): < 40 µg/mL; degree of resistance [2]: 2.84; IC50 [4, 16]: 7.83 ± 0.01 µg/mL; degree of resistance [7]: 5.76
1,4-dihydroxybenzene [Compound 7]	more than 50%												
CC1(C)CCCC2(C)C1CCC1(C=O)C(O)CC(C=O)=CCC21 (stereo not drawn) [Compound 5, galanal B]	49.81%					> 2.02							IC50 ([1]; CCRF-CEM, 72 h): 19.81 ± 2.01 µg/mL; IC50 (AML12 normal hepatocytes): - ((-): >40 μg/mL); IC50 [2]: - ((-): >40 μg/mL); IC50 [3]: - ((-): >40 μg/mL); IC50 ([4]; MDA-MB-231-BCRP): - ((-): >40 μg/mL); IC50 [5]: - ((-): >40 μg/mL); IC50 ([6]; 72 h): - ((-): >40 μg/mL); IC50 [7]: - ((-): >40 μg/mL); IC50 (U87MG glioblastoma cells): - ((-): >40 μg/mL); IC50 [8]: - ((-): >40 μg/mL)
CC1(C)CCCC2(C)C1CCC1(C=O)C(O)CC(C=O)=CCC21 (stereo not drawn) [Compound 4, galanal A]	47.78%		> 40	> 40	> 40	> 2.31	< 0.70	> 40	> 40	> 40	> 40	> 40	IC50 ([1]; Homo sapiens, CCRF-CEM, 72 h, CCRF-CEM, read-out: IC50): 17.3 ± 1.96 µg/mL; IC50 ([4]; MDA-MB-231/BCRP, MDA-MB-231-BCRP, read-out: IC50): 28 ± 2.39 µg/mL
